This is an account of results in patent publication US20210121833A1, “Producing Homogeneous Metastable Solutions from Heterogeneous Non-condensed Solutes And Liquid Solvents” (priority 2019, published 2021).

Molecules are shown by their SMILES.

For series [1] the following is noted: cited from earlier work.
The subject of series [2] is wounds and lesions. The series can be described thus: Baths with oxygen saturated metastable solution, preliminary animal studies. The format is in vivo. To be noted: at least 30 mg/l concentration of oxygen.

For the molecule `O=O` [oxygen], the “fully saturated DO level” value in series [1] (STP) was 38 mg/L. The “solubility limit of oxygen” value in series [1] (atmospheric conditions, partial pressure in air of 0.21 atm) is “less than 10 mg/l”. In addition, in series [2], the benefits of healing result is reported as “Benefits of healing have been seen”.
